Test results published in US20200399222A1, “PICOLINAMIDES AS FUNGICIDES” (Dow AgroSciences LLC, priority 2018, published 2020).
Like-named read-outs stand apart in the source and are kept apart here.

Experiments:
Type in all cases: in vivo
[1] = tested on: Zymoseptoria tritici; assay: Leaf blotch of wheat (SEPTTR) disease control on wheat seedlings; conditions: Low volume application, 121.5 g/ha
[2] = tested on: Puccinia triticina; assay: Wheat brown rust (PUCCRT) disease control on wheat seedlings; conditions: Low volume application, 121.5 g/ha
Method in brief: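 Yuma wheat seedlings (first leaf emerged) sprayed to run-off with compound in acetone plus nine volumes water containing 110 ppm Triton X-100, or track-sprayed as EC formulations with 0.1% Trycol 5941. Rust spores inoculated before or after treatment; overnight dark dew, 22 °C, 100% RH, then greenhouse at 24 °C.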

[3] = tested on: Phakopsora pachyrhizi; assay: Asian soybean rust (PHAKPA) disease control on soybean seedlings; conditions: Phakopsora pachyrhizi, High volume application at 25 ppm
Method in brief: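 Compounds in acetone diluted with nine volumes of water containing 0.011% Tween 20, sprayed to run-off on two-week-old Williams 82 soybean seedlings; inoculation 3 days before or 1 day after treatment. Plants held 24 h in dark dew room at 22° C, 100% RH, then at 23° C; disease severity scored on sprayed leaves.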

[4] = tested on: Rhyncosporium secalis; assay: Barley scald (RHYNSE) disease control on barley seedlings; conditions: 1DP test at 100 ppm
Description: Technical grades of materials were dissolved in acetone, which were then mixed with nine volumes of water containing 110 ppm Triton X-100. The fungicide solutions were applied onto wheat seedlings using an automated booth sprayer to run-off. All sprayed plants were allowed to air dry prior to further handling. All fungicides were evaluated using the aforementioned method for their activity vs. all target diseases, unless stated otherwise. Wheat leaf blotch and brown rust activity were also evaluated using track spray applications, in which case the fungicides were formulated as EC formulations, containing 0.1% Trycol 5941 in the spray solutions. Example J: Evaluation of Fungicidal Activity: Barley Scald (Rhyncosporium secalis; Bayer Code […]) Barley seedlings (variety Harrington) were propagated in soil-less Metro mix, with each pot having 8 to 12 plants, and used in the test when first leaf was fully emerged. Test plants were inoculated by an aqueous spore suspension of Rhyncosporium secalis 24 hr after fungicide treatments. After inoculation the plants were kept in a dew room at 20° C. with 100% relative humidity for 48 hr. The plants were then transferred to a greenhouse set at 20° C. for disease to develop. Fungicide formulation, application and disease assessment on the sprayed leaves followed the procedures as described in the Example A.

[5] = tested on: Alternaria solani; assay: Tomato early blight (ALTESO) disease control on tomato plants; conditions: 1DP test at 100 ppm
Description: Technical grades of materials were dissolved in acetone, which were then mixed with nine volumes of water containing 110 ppm Triton X-100. The fungicide solutions were applied onto wheat seedlings using an automated booth sprayer to run-off. All sprayed plants were allowed to air dry prior to further handling. All fungicides were evaluated using the aforementioned method for their activity vs. all target diseases, unless stated otherwise. Wheat leaf blotch and brown rust activity were also evaluated using track spray applications, in which case the fungicides were formulated as EC formulations, containing 0.1% Trycol 5941 in the spray solutions. Example D: Evaluation of Fungicidal Activity: Tomato Early Blight (Alternaria solani; Bayer Code […]) Tomato plants (variety Outdoor Girl) were propagated in soil-less Metro mix, with each pot having one plant, and used when 12 to 14 days old. Test plants were inoculated with an aqueous spore suspension of Alternaria solani 24 hr after fungicide treatments. After inoculation the plants were kept in 100% relative humidity (one day in a dark dew chamber followed by two to three days in a lighted dew chamber at 20° C.) to permit spores to germinate and infect the leaf. The plants were then transferred to a growth room at 22° C. for disease to develop. […]

[6] = tested on: Pseudoperonospora cubensis; assay: Cucumber downy mildew (PSPECU) disease control on cucumber seedlings; conditions: 1DP test at 100 ppm
Description: Technical grades of materials were dissolved in acetone, which were then mixed with nine volumes of water containing 110 ppm Triton X-100. The fungicide solutions were applied onto wheat seedlings using an automated booth sprayer to run-off. All sprayed plants were allowed to air dry prior to further handling. All fungicides were evaluated using the aforementioned method for their activity vs. all target diseases, unless stated otherwise. Wheat leaf blotch and brown rust activity were also evaluated using track spray applications, in which case the fungicides were formulated as EC formulations, containing 0.1% Trycol 5941 in the spray solutions. Example H: Evaluation of Fungicidal Activity: Cucumber Downy Mildew (Pseudoperonospora cubensis; Bayer Code […]) Cucumber seedlings (variety Bush Pickle) were grown in soil-less Metro mix, with one plant per pot, and used in the test when 12 to 14 days old. Plants were inoculated with a spore suspension 24 hr following fungicide treatments. […] After inoculation the plants were kept in a dew room at 22° C. with 100% relative humidity for 24 hr to permit spores to germinate and infect the leaf. The plants were then transferred to a greenhouse set at 20° C. until disease was fully expressed. […]

[7] = tested on: Uncinula necator; assay: Grape powdery mildew (UNCINE) disease control on grape seedlings; conditions: 1DP test at 100 ppm
Description: Technical grades of materials were dissolved in acetone, which were then mixed with nine volumes of water containing 110 ppm Triton X-100. The fungicide solutions were applied onto wheat seedlings using an automated booth sprayer to run-off. All sprayed plants were allowed to air dry prior to further handling. All fungicides were evaluated using the aforementioned method for their activity vs. all target diseases, unless stated otherwise. Wheat leaf blotch and brown rust activity were also evaluated using track spray applications, in which case the fungicides were formulated as EC formulations, containing 0.1% Trycol 5941 in the spray solutions. Example K: Evaluation of Fungicidal Activity: Grape Powdery Mildew (Uncinula necator; Bayer Code […]) Grape seedlings (variety Carignane) were grown in soil-less Metro mix, with one plant per pot, and used in the test when approximately 1 month old. Plants were inoculated 24 hr after fungicide treatment by shaking spores from infected leaves over test plants. Plants were maintained in a greenhouse set at 20° C. until disease was fully developed. Fungicide formulation, application and disease assessment on sprayed leaves followed the procedures as described in the Example A.

[8] = 24 h, 1 Day Protectant, read-out: SEPTTR disease control rating, 1DP
[9] = 72 h, 3 Day Curative, read-out: SEPTTR disease control rating, 3DC
[10] = 24 h, 1 Day Protectant, read-out: PUCCRT disease control rating, 1DP
[11] = 72 h, 3 Day Curative, read-out: PUCCRT disease control rating, 3DC
[12] = 24 h, 1 day protectant, read-out: PHAKPA 1DP (1 Day Protectant) disease control
[13] = 72 h, 3 day curative, read-out: PHAKPA 3DC (3 Day Curative) disease control

Row | SMILES | pest or weed control at 121.5 g/ha [1, 8] [%] | pest or weed control at 121.5 g/ha [1, 9] [%] | pest or weed control at 121.5 g/ha [2, 10] [%] | pest or weed control at 121.5 g/ha [2, 11] [%] | pest or weed control at 25 ppm [3, 12] [%] | pest or weed control at 25 ppm [3, 13] [%] | RHYNSE disease control rating [4] | ALTESO disease control rating [5] | PSPECU disease control rating [6] | UNCINE disease control rating [7]
1 | COc1ccnc(C(=O)N[C@@H](C)C(=O)O[C@H](C)[C@H](C)c2ccccc2C)c1OC(C)=O [Example 263] | < 80 | < 80 | < 80 | < 80 | > 80 | < 80 | B (≤80) |  |  | 
2 | COc1ccnc(C(=O)N[C@@H](C)C(=O)O[C@@H](C)[C@@H](C)c2ccccc2C)c1OC(C)=O [Example 264] | < 80 | < 80 | > 80 | > 80 | > 80 | > 80 |  | B (≤80) | B (≤80) | A (>80)
3 | COc1cc[n+]([O-])c(C(=O)N[C@@H](C)C(=O)O[C@@H](C)[C@@H](C)C2CCCC2)c1O [Example 275] | < 0 | < 0 | < 80 | < 0 | < 80 | < 80 |  |  |  | 
4 | COc1ccnc(C(=O)N[C@@H](C)C(=O)O[C@@H](C)[C@@H](C)c2ccccc2C)c1OC(=O)C(C)C [Example 266] | < 80 | < 80 | < 80 | < 80 | > 80 | > 80 |  |  |  | 
5 | COc1ccnc(C(=O)N[C@@H](C)C(=O)O[C@H](C)[C@H](C)c2ccc(F)cc2C(F)(F)F)c1OC(C)=O [Example 251] | < 80 | < 80 | < 80 | < 80 | > 80 | < 80 |  |  |  | 
